In patent US20260103465A1, “GLYCOGEN SYNTHASE KINASE 3 INHIBITORS AND USES THEREOF” (The Broad Institute, Inc., priority 2023, published 2026):
pIC50: −log10 of the molar value. Where two headings read alike, the source gives them in different places.

Assays:
[1] = molecular target: T1, GSK3b (GST-full length GSK3b) (Homo sapiens, UniProt P49841); assay: GSK3b TR-FRET kinase inhibition assay; format: biochemical
T1 construct: GST-full length GSK3b: [SignalChem G08-9G]; purchased SignalChem G08-9G
Method in brief: (§1)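 GST-tagged full-length human kinase (1 nM), pre-incubated 30 min with compound, then reacted 100 min at ambient temperature at pH 7.5 with 200 nM biotinylated phospho-S645 glycogen synthase 631–650 peptide and ATP at 2 μM–1 mM. After EDTA quench, Tb-pSer641 antibody/streptavidin-d2 TR-FRET 665/615 ratio fitted for IC50.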

MDR1 = assay: MDR1/MDCK permeability assay; format: in vitro ADME; details: dog; for Papp A→B at 120 min, 5 µM: MDCK-MDR1, pH 7.4, A to B; for Papp B→A at 120 min, 5 µM: MDCK-MDR1, pH 7.4, B to A; for efflux ratio at 120 min, 5 µM: MDCK-MDR1, pH 7.4, Papp B-A/A-B, Mean, P. Ratio(B-A/A-B) Efflux Ratio
Method in brief: (§2)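 Confluent MDR1-MDCK monolayers (7–11 days old), compound dosed at 5 μM in HBSSg (≤1% DMSO) apically or basolaterally, pH 7.4 both sides, receiver with 1% BSA, N=2. Both sides sampled at 120 min and quantified by LC-MS/MS; Papp in each direction, efflux ratio B-A/A-B and recovery reported.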

[2] = molecular target: T2, GSK3a (GST-full length GSK3a) (Homo sapiens, UniProt P49840); assay: GSK3a TR-FRET kinase inhibition assay; format: biochemical
T2 construct: GST-full length GSK3a [SignalChem G08-10G]; purchased SignalChem G08-10G
Method in brief: as §1

[3] = Human liver microsomal stability; format: in vitro ADME; details: for half-life at 1 µM: human, liver microsomes; for Microsome Stability (Human) (DMPK_BIIB); Mean; in vitro t1/2: human liver microsomes
Method in brief: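 Compound incubated at 1 µM with human liver microsomes for 60 min at 37 °C, in duplicate. Percent remaining derived from compound level at 60 min relative to 0 min. Controls: microsomes with NADPH and no compound; compound with microsomes lacking NADPH.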

[4] = test system: MDR1-MDCK cell monolayers; assay: MDR1/MDCK permeability assay; format: in vitro ADME; details: for MDCK Permeability (MDR1-MDCK); Mean; Papp(A-B) (10^−6 cm/s): A to B; for MDCK Permeability (MDR1-MDCK); Mean; Papp(B-A) (10^−6 cm/s): B to A; for MIDCK Permeability (MDR1-MDCK); Mean; P. Ratio(B-A/A-B) Efflux Ratio / MDCK Permeability (MDR1-MDCK); Mean; P. Ratio(B-A/A-B) Efflux Ratio: Papp B-A/A-B
Method in brief: as §2

[5] = 10 μM ATP, read-out: GSK3b 10 μM ATP Average IC50
[6] = 100 μM ATP, read-out: GSK3b 100 μM ATP Average IC50
[7] = 1 mM ATP, Table 3, read-out: GSK3b TR-FRET 1 mM ATP Average IC50
[8] = 10 μM ATP, read-out: GSK3a 10 μM ATP Average IC50
[9] = 100 μM ATP, read-out: GSK3a 100 μM ATP Average IC50
[10] = 1 mM ATP, Table 3, read-out: GSK3a TR-FRET 1 mM ATP Average IC50
[11] = 2 μM ATP, read-out: GSK3β TR-FRET 2 μM ATP GMean IC50
[12] = 1 mM ATP, Table 4, read-out: GSK3β TR-FRET 1 mM ATP GMean IC50
[13] = 4 μM ATP, read-out: GSK3α TR-FRET 4 μM ATP GMean IC50
[14] = 1 mM ATP, Table 4, read-out: GSK3α TR-FRET 1 mM ATP GMean IC50

T2 sequence (P49840 whole entry): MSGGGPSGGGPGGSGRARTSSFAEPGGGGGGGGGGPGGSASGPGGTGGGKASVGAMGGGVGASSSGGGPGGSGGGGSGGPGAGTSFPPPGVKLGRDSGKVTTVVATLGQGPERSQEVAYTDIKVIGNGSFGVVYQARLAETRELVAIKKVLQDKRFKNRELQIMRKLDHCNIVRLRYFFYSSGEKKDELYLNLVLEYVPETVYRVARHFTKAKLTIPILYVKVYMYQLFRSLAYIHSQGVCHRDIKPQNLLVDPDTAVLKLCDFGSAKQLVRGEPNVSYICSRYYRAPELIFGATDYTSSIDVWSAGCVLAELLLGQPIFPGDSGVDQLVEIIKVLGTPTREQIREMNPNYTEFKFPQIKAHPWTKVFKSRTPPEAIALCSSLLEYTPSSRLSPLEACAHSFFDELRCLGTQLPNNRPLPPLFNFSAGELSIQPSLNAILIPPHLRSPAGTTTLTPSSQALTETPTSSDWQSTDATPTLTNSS
T1 sequence (P49841 whole entry): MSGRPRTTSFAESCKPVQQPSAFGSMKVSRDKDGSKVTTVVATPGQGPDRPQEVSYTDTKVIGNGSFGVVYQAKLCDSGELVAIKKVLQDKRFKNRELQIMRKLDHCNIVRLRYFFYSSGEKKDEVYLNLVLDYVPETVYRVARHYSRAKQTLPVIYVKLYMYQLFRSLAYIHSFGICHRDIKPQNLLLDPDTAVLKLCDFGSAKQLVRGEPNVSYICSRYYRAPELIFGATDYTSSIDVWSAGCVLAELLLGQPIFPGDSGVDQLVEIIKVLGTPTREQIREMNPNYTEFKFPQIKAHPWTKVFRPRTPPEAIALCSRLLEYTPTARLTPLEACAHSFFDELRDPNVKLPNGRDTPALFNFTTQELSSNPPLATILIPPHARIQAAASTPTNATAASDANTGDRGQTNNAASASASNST

pIC50 [1, 5]	pIC50 [1, 6]	pIC50 [1, 7]	pIC50 [2, 8]	pIC50 [2, 10]	MDCK Permeability (MDR1-MDCK); Mean; Papp(A-B) (10^−6 cm/s) ([4]; Table 3)	MDCK Permeability (MDR1-MDCK); Mean; Papp(B-A) (10^−6 cm/s) ([4]; Table 3)	MIDCK Permeability (MDR1-MDCK); Mean; P. Ratio(B-A/A-B) Efflux Ratio ([4]; Table 3)	Microsome Stability (Human) (DMPK_BIIB); Mean; in vitro t1/2 ([3]; Table 3) [min]	MDCK Permeability (MDR1-MDCK); Mean; Papp(A-B) (10^−6 cm/s) ([4]; Table 4)	MDCK Permeability (MDR1-MDCK); Mean; Papp(B-A) (10^−6 cm/s) ([4]; Table 4)	MDCK Permeability (MDR1-MDCK); Mean; P. Ratio(B-A/A-B) Efflux Ratio ([4]; Table 4)	Microsome Stability (Human) (DMPK_BIIB); Mean; in vitro t1/2 ([3]; Table 4) [min]	pIC50 [1, 11]	pIC50 [2, 13]	SMILES	other results
≥ 7.00	6.00 to 7.00	5.30 to 6.00	≥ 7.00	5.30 to 6.00											CCC1(c2ccccc2)C2=C(CC(C)(C)CC2=O)Nc2ncc(C(F)(F)F)cc21 (single isomer, unassigned) [Compound 133A]	Papp A→B at 120 min, 5 µM (MDR1; Table 3): 14 ×10⁻⁶ cm/s; Papp A→B at 120 min, 5 µM (MDR1; Table 4): 13 ×10⁻⁶ cm/s; Papp B→A at 120 min, 5 µM (MDR1; Table 3): 8.2 ×10⁻⁶ cm/s; Papp B→A at 120 min, 5 µM (MDR1; Table 4): 19 ×10⁻⁶ cm/s; efflux ratio at 120 min, 5 µM (MDR1; Table 3, read-out: MIDCK Permeability (MDR1-MDCK)): 0.56; efflux ratio at 120 min, 5 µM (MDR1; Table 4, read-out: MDCK Permeability (MDR1-MDCK)): 1.5; pIC50 [2, 9]: 6.00 to 7.00; half-life at 1 µM ([3]; Table 3, read-out: Microsome Stability (Human) (DMPK_BIIB), Mean, in vitro t1/2): 78 min; half-life at 1 µM ([3]; Table 4, read-out: Microsome Stability (Human) (DMPK_BIIB), Mean, in vitro t1/2): 1.4 min
		5.30 to 6.00		5.30 to 6.00	20 10^−6 cm/s	10 10^−6 cm/s	0.53	>145							CC1(C)CC(=O)C2=C(C1)Nc1ncc(C(F)(F)F)cc1C2(C)c1ccccc1 (single isomer, unassigned) [Compound 128B]	
≥ 7.00	≥ 7.00	5.30 to 6.00	≥ 7.00	6.00 to 7.00	23 10^−6 cm/s	16 10^−6 cm/s	0.68	49	10 10^−6 cm/s	20 10^−6 cm/s	2.0	37			CCC1(c2ccccc2)C2=C(CC(C)(C)CC2=O)Nc2ncc(F)cc21 (single isomer, unassigned) [Compound 114A]	pIC50 [2, 9]: ≥ 7.00
		5.30 to 6.00		5.30 to 6.00	30 10^−6 cm/s	18 10^−6 cm/s	0.61	94							CC1(C)CC(=O)C2=C(C1)Nc1ncc(F)cc1C2(C)c1ccccc1 (single isomer, unassigned) [Compound 107B]	
4.70 to 5.30	4.22 to 4.70	4.70 to 5.30	4.22 to 4.70		2.1 10^−6 cm/s	1.2 10^−6 cm/s	0.60	11							CC(C)(C)Cc1cnc2c(c1)C(C)(c1ccccc1)C1=C(CC(C)(C)CC1=O)N2 (single isomer, unassigned) [Compound 129A]	
									4.2 10^−6 cm/s	39 10^−6 cm/s	9.5	4.8	≥ 7.00	≥ 7.00	CCC1(c2cccc(-c3ccnn3C)c2)C2=C(CC(C)(C)CC2=O)Nc2ncccc21 (single isomer, unassigned) [Compound 1019A]	pIC50 [1, 12]: 5.30 to 6.00; pIC50 [2, 14]: 6.00 to 7.00
									2.9 10^−6 cm/s	29 10^−6 cm/s	9.9	2.7	≥ 7.00	≥ 7.00	CCC1(c2cccc(-c3c(C)nn(C)c3C)c2)C2=C(CC(C)(C)CC2=O)Nc2ncccc21 (single isomer, unassigned) [Compound 150B]	pIC50 [1, 12]: 5.30 to 6.00; pIC50 [2, 14]: 6.00 to 7.00
									21 10^−6 cm/s	31 10^−6 cm/s	1.5	1.6	5.30 to 6.00	5.30 to 6.00	CCC1(c2ccccc2)C2=C(CC3(CCC3)CC2=O)Nc2ncc(F)cc21 (single isomer, unassigned) [Compound 1008B]	
									0.70 10^−6 cm/s	34 10^−6 cm/s	49	13	6.00 to 7.00	≥ 7.00	CCC1(c2cccc(-c3cncn3C(C)C)c2)C2=C(CC(C)(C)CC2=O)Nc2ncc(F)cc21 (single isomer, unassigned) [Compound 1038B]	
		5.30 to 6.00		6.00 to 7.00					5.2 10^−6 cm/s	33 10^−6 cm/s	6.4	5.6	≥ 7.00	≥ 7.00	CCC1(c2cccc(-c3c(F)cncc3OC)c2)C2=C(CC(C)(C)CC2=O)Nc2ncc(F)cc21 (single isomer, unassigned) [Compound 161B]	pIC50 [1, 12]: ≥ 7.00; pIC50 [2, 14]: ≥ 7.00
4.70 to 5.30	4.22 to 4.70	4.70 to 5.30	4.22 to 4.70	4.70 to 5.30	1.8 10^−6 cm/s	1.0 10^−6 cm/s	0.59	1.1							CC(C)(C)Cc1cnc2c(c1)C(C)(c1ccccc1)C1=C(CC(C)(C)CC1=O)N2 (single isomer, unassigned) [Compound 129B]	
									6.2 10^−6 cm/s	22 10^−6 cm/s	3.6	19	≥ 7.00	≥ 7.00	CCC1(c2cccc(-c3ccncc3C)c2)C2=C(CC(C)(C)CC2=O)Nc2ncc(F)cc21 (single isomer, unassigned) [Compound 1031B]	
									15 10^−6 cm/s	28 10^−6 cm/s	1.9	3.8	≥ 7.00	≥ 7.00	CCC1(c2cccc(C(C)C)c2)C2=C(CC(C)(C)CC2=O)Nc2ncccc21 (single isomer, unassigned) [Compound 1011B]	
